Numbered stars: 1 amine (or outer) side, 2 acyl side, 3 side chain; on linkers, the order of the positions; unused ones are H or OH. Bridge positions count the residues as written; N and C are the ends. Square brackets hold non-standard residues; d marks the D form. Peptide text beside a SMILES is read from it. Trp(7-aza) = N[C@@H](Cc1c[nH]c2ncccc12)C(=O)O; Phe(4-F) = N[C@@H](Cc1ccc(F)cc1)C(=O)O; 1Nal = N[C@@H](Cc1cccc2ccccc12)C(=O)O; mXylylene = c1cc(C[*:1])cc(C[*:2])c1; pXylylene = c1cc(C[*:2])ccc1C[*:1]; NH(CH2)5NH = C(CCN[*:1])CCN[*:2]; 2Pal = N[C@@H](Cc1ccccn1)C(=O)O; 3Pal = N[C@@H](Cc1cccnc1)C(=O)O; 4Pal = N[C@@H](Cc1ccncc1)C(=O)O; Aad = N[C@@H](CCCC(=O)O)C(=O)O; Tle = CC(C)(C)[C@H](N)C(=O)O; αMeV = CC(C)[C@](C)(N)C(=O)O; S5 = C=CCCC[C@](C)(N)C(=O)O; Nva = CCC[C@H](N)C(=O)O; Ac4c = NC1(C(=O)O)CCC1; Aib = CC(C)(N)C(=O)O; Mpa = O=C(O)CCS
Key:
PCSK9 = PCSK9 (Homo sapiens, UniProt Q8NBP7); experiment: PCSK9 Alexa FRET Standard assay (displacement of AlexaFluor647 tagged cyclic peptide Reagent A); assay type: binding; settings: 0.5 nM PCSK9, 20 nM AF cyclic peptide Reagent A
Chain of PCSK9 (Q8NBP7 153-692): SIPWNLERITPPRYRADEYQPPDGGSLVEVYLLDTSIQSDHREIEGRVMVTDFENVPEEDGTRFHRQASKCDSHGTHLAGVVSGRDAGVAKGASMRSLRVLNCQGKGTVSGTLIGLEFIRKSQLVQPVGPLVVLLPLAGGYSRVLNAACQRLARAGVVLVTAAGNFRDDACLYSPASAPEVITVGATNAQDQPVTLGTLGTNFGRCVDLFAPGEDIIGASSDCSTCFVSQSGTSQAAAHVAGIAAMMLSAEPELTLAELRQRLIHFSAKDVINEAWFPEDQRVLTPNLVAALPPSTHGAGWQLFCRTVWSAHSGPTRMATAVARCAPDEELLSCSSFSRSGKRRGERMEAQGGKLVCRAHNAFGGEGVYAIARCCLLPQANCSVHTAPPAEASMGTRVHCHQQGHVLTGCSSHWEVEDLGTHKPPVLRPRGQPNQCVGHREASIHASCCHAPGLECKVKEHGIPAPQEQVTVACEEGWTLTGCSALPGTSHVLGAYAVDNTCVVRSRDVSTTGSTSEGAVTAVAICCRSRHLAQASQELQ
Procedure: A solution containing 1 nM biotinylated PCSK9+2.5 nM Lance Streptavidin Europium (Strep-Eu) was made in 50 mM HEPES pH 7.4, 0.15 M NaCl, 5 mM CaCl2), 0.01% BSA, and 0.01% Surfactant P20. A separate solution containing 40 nM of the AlexaFluor tagged cyclic peptide was made in the same buffer system. An Echo was used to transfer 0.750 ul of compound to an assay plate followed by the addition of 15 ul of PCSK9+Stept-Eu and 15 ul of AF peptide. The final assay volume was 30.750 ul containing 0.5 nM PCSK9, 1.25 nM Strep-Eu, and 20 nM AF cyclic peptide. The reaction was incubated at room temperature for at least two hours prior to fluorescence measurements using an Envision Multilabel Reader. IC50 values were determined by fitting data to a sigmoidal dose-response curve using nonlinear regression. Ki was then calculated from the IC50 and the KD of AF cyclic peptide. Counts (B-counts) of the europium-labeled PCSK9 were followed to observe if compounds were […]. A fall off of the B-counts likely indicated a false positive of inhibition. Data from this procedure was reported as “A=‘numerical value’ (nanomolar)”

[1] = target: human PCSK9 / human LDLR EGFa domain interaction (Homo sapiens, UniProt Q8NBP7); experiment: TR-FRET assay of inhibition of the PCSK9-LDLR protein-protein interaction; assay type: binding; settings: 20 nM avitag-biotinylated human PCSK9, 20 nM his-tagged human LDLR EGFa domain, 2 hours, room temperature
Chain of human PCSK9 / human LDLR EGFa domain interaction (Q8NBP7 153-692): as above
Chain of human PCSK9 / human LDLR EGFa domain interaction (Q8NBP7 31-152 partner limits assumed): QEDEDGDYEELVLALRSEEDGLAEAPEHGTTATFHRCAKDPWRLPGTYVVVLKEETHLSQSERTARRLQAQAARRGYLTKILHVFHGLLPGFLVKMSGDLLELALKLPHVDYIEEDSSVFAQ
Procedure, shortened: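 Avitag-biotinylated human PCSK9 (20 nM) and his-tagged human LDLR EGFa domain (20 nM) were incubated with 5 nM Ulight streptavidin and 5 nM europium anti-6×His for 2 h at room temperature. Buffer: 50 mM HEPES, 150 mM NaCl, 5 mM CaCl2, 0.01% BSA, 0.01% P20. IC50 from 4-parameter fit of dose-response.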

| SMILES | IC50 (PCSK9) [µM] | IC50 [1] [µM] |
| --- | --- | --- |
| CC(=O)N[C@H]1CSCc2cccc(c2)CSC[C@@H](C(N)=O)NC(=O)[C@H]([C@@H](C)O)NC(=O)C(C)(C)NC(=O)[C@H](Cc2ccc(O)cc2)NC(=O)[C@H](C)NC(=O)C(C)(C)NC(=O)[C@H](Cc2c[nH]c3ncccc23)NC(=O)[C@H]([C@@H](C)O)NC(=O)[C@@H]2CCCN2C(=O)[C@H](Cc2ccc(O)cc2)NC(=O)[C@H](C(C)(C)C)NC1=O [Compound 179] (Ac-C[Tle]YPT[Trp(7-aza)][Aib]AY[Aib]TC-NH2; linker 1-12 via mXylylene) | 1 to 21 | 21 to 50 |
| CC(=O)N[C@H]1CSCc2cccc(c2)CSC[C@@H](C(N)=O)NC(=O)[C@H]([C@@H](C)O)NC(=O)[C@](C)(C(C)C)NC(=O)[C@H](Cc2ccc(O)cc2)NC(=O)[C@H](C)NC(=O)C2(CCC2)NC(=O)[C@H](Cc2c[nH]c3ncccc23)NC(=O)[C@H]([C@@H](C)O)NC(=O)[C@@H]2CCCN2C(=O)[C@H](Cc2ccc(O)cc2)NC(=O)[C@H](C(C)(C)C)NC1=O [Compound 183] (Ac-C[Tle]YPT[Trp(7-aza)][Ac4c]AY[αMeV]TC-NH2; linker 1-12 via mXylylene) | 1 to 21 | 21 to 50 |
| CCC[C@@H]1NC(=O)[C@H](Cc2ccc(O)cc2)NC(=O)[C@H](C)NC(=O)[C@]2(C)CCC/C=C/CCC[C@](C)(NC1=O)C(=O)NCCCCCNC(=O)CCC[C@H](NC(C)=O)C(=O)N[C@@H](C(C)(C)C)C(=O)N[C@@H](Cc1ccc(O)cc1)C(=O)N1CCC[C@H]1C(=O)N[C@@H]([C@@H](C)O)C(=O)N[C@@H](Cc1cccc3ccccc13)C(=O)N2 [Compound 347] (Ac-[Aad][Tle]YPT[1Nal][S5]AY[Nva][S5]; linker 1-C via NH(CH2)5NH; staple (E) 7-11) | 0.1 to 1 | 0.1 to 1 |
| CCC[C@@H]1NC(=O)[C@H](Cc2c[nH]c3ncccc23)NC(=O)[C@H]([C@@H](C)O)NC(=O)[C@H](Cc2c[nH]cn2)NC(=O)[C@H](Cc2ccc(O)cc2)NC(=O)[C@H](C(C)(C)C)NC(=O)CCSCc2cccc(c2)CSC[C@@H](C(N)=O)NC(=O)[C@H]([C@@H](C)O)NC(=O)[C@H](CCC)NC(=O)[C@H](Cc2ccc(O)cc2)NC(=O)[C@H](CC(=O)O)NC1=O [Compound 254] ([Mpa][Tle]YHT[Trp(7-aza)][Nva]DY[Nva]TC-NH2; linker 1-12 via mXylylene) | 1 to 21 | 0.1 to 1 |
| CCC[C@@H]1NC(=O)[C@H](Cc2ccc(O)cc2)NC(=O)[C@H](CCC(=O)O)NC(=O)[C@H](CCC)NC(=O)[C@H]([C@@H](C)O)NC(=O)[C@H](Cc2c[nH]cn2)NC(=O)[C@H](Cc2ccc(O)cc2)NC(=O)[C@H](C(C)(C)C)NC(=O)CCSCc2ccc(cc2)CSC[C@@H](C(N)=O)NC(=O)[C@H]([C@@H](C)O)NC1=O [Compound 251] ([Mpa][Tle]YHT[Nva]EY[Nva]TC-NH2; linker 1-11 via pXylylene) | 50 to 100 | – |
| CCC[C@@H]1NC(=O)[C@H](Cc2c[nH]c3ncccc23)NC(=O)[C@H]([C@@H](C)O)NC(=O)C(C)(C)NC(=O)[C@H](Cc2ccc(O)cc2)NC(=O)[C@H](C(C)(C)C)NC(=O)CCSCc2cccc(c2)CSC[C@@H](C(N)=O)NC(=O)[C@H]([C@@H](C)O)NC(=O)[C@H](CCC)NC(=O)[C@H](Cc2ccc(O)cc2)NC(=O)[C@H](CCC(=O)O)NC1=O [Compound 005] ([Mpa][Tle]Y[Aib]T[Trp(7-aza)][Nva]EY[Nva]TC-NH2; linker 1-12 via mXylylene) | 21 to 50 | – |
| CCC[C@@H]1NC(=O)[C@H](Cc2ccncc2)NC(=O)[C@H]([C@@H](C)O)NC(=O)[C@H](Cc2c[nH]cn2)NC(=O)[C@H](Cc2ccc(O)cc2)NC(=O)[C@H](C(C)(C)C)NC(=O)CCSCc2cccc(c2)CSC[C@@H](C(N)=O)NC(=O)[C@H]([C@@H](C)O)NC(=O)[C@H](CCC)NC(=O)[C@H](Cc2ccc(O)cc2)NC(=O)[C@H](CCC(=O)O)NC1=O [Compound 270] ([Mpa][Tle]YHT[4Pal][Nva]EY[Nva]TC-NH2; linker 1-12 via mXylylene) | 50 to 100 | – |
| CCC[C@@H]1NC(=O)[C@H](Cc2c[nH]c3ncccc23)NC(=O)[C@H]([C@@H](C)O)NC(=O)[C@H](Cc2cccnc2)NC(=O)[C@H](Cc2ccc(O)cc2)NC(=O)[C@H](C(C)(C)C)NC(=O)CCSCc2cccc(c2)CSC[C@@H](C(N)=O)NC(=O)[C@H]([C@@H](C)O)NC(=O)[C@H](CCC)NC(=O)[C@H](Cc2ccc(O)cc2)NC(=O)[C@H](CCC(=O)O)NC1=O [Compound 113] ([Mpa][Tle]Y[3Pal]T[Trp(7-aza)][Nva]EY[Nva]TC-NH2; linker 1-12 via mXylylene) | 50 to 100 | – |
| CCC[C@@H]1NC(=O)[C@H](Cc2c[nH]c3ncccc23)NC(=O)[C@H]([C@@H](C)O)NC(=O)[C@H](Cc2c[nH]cn2)NC(=O)[C@H](Cc2ccc(O)cc2)NC(=O)[C@H](C(C)(C)C)NC(=O)CCSCc2cccc(c2)CSC[C@@H](C(N)=O)NC(=O)[C@H]([C@@H](C)O)NC(=O)[C@H](CCC)NC(=O)[C@H](Cc2ccc(F)cc2)NC(=O)[C@H](CCC(=O)O)NC1=O [Compound 266] ([Mpa][Tle]YHT[Trp(7-aza)][Nva]E[Phe(4-F)][Nva]TC-NH2; linker 1-12 via mXylylene) | 1 to 21 | – |
| CCC[C@@H]1NC(=O)[C@H](Cc2ccc(O)cc2)NC(=O)[C@H](CCC(=O)O)NC(=O)C(C)(C)NC(=O)[C@H](Cc2c[nH]c3ncccc23)NC(=O)[C@H]([C@@H](C)O)NC(=O)[C@H](Cc2c[nH]cn2)NC(=O)[C@H](Cc2ccc(O)cc2)NC(=O)[C@H](C(C)(C)C)NC(=O)CCSCc2cccc(c2)CSC[C@@H](C(N)=O)NC(=O)[C@H]([C@@H](C)O)NC1=O [Compound 268] ([Mpa][Tle]YHT[Trp(7-aza)][Aib]EY[Nva]TC-NH2; linker 1-12 via mXylylene) | 0.1 to 1 | – |
| CCC[C@H](NC(C)=O)C(=O)N[C@H]1CSCc2cccc(c2)CSC[C@@H](C(N)=O)NC(=O)[C@H]([C@@H](C)O)NC(=O)[C@H](CCC)NC(=O)[C@H](Cc2ccc(O)cc2)NC(=O)[C@H](C)NC(=O)[C@H](CCC)NC(=O)[C@H](Cc2c[nH]c3ncccc23)NC(=O)[C@H]([C@@H](C)O)NC(=O)[C@H](Cc2cnc[nH]2)NC(=O)[C@H](Cc2ccc(O)cc2)NC(=O)[C@H](C(C)(C)C)NC1=O [Compound 258] (Ac-[Nva]C[Tle]YHT[Trp(7-aza)][Nva]AY[Nva]TC-NH2; linker 2-13 via mXylylene) | 50 to 100 | – |
| CCC[C@@H]1NC(=O)[C@H](Cc2cccnc2)NC(=O)[C@H]([C@@H](C)O)NC(=O)[C@H](Cc2c[nH]cn2)NC(=O)[C@H](Cc2ccc(O)cc2)NC(=O)[C@H](C(C)(C)C)NC(=O)CCSCc2cccc(c2)CSC[C@@H](C(N)=O)NC(=O)[C@H]([C@@H](C)O)NC(=O)[C@H](CCC)NC(=O)[C@H](Cc2ccc(O)cc2)NC(=O)[C@H](CCC(=O)O)NC1=O [Compound 272] ([Mpa][Tle]YHT[3Pal][Nva]EY[Nva]TC-NH2; linker 1-12 via mXylylene) | 50 to 100 | – |
| CCC[C@@H]1NC(=O)[C@H](Cc2ccccn2)NC(=O)[C@H]([C@@H](C)O)NC(=O)[C@H](Cc2c[nH]cn2)NC(=O)[C@H](Cc2ccc(O)cc2)NC(=O)[C@H](C(C)(C)C)NC(=O)CCSCc2cccc(c2)CSC[C@@H](C(N)=O)NC(=O)[C@H]([C@@H](C)O)NC(=O)[C@H](CCC)NC(=O)[C@H](Cc2ccc(O)cc2)NC(=O)[C@H](CCC(=O)O)NC1=O [Compound 271] ([Mpa][Tle]YHT[2Pal][Nva]EY[Nva]TC-NH2; linker 1-12 via mXylylene) | 50 to 100 | – |
| CCC[C@@H]1NC(=O)[C@H](Cc2ccc(O)cc2)NC(=O)[C@H](CCC(=O)O)NC(=O)[C@H](Cc2c[nH]c3ncccc23)NC(=O)[C@H]([C@@H](C)O)NC(=O)[C@H](Cc2c[nH]cn2)NC(=O)[C@H](Cc2ccc(O)cc2)NC(=O)[C@H](C(C)(C)C)NC(=O)CCSCc2cccc(c2)CSC[C@@H](C(N)=O)NC(=O)[C@H]([C@@H](C)O)NC1=O [Compound 248] ([Mpa][Tle]YHT[Trp(7-aza)]EY[Nva]TC-NH2; linker 1-11 via mXylylene) | 50 to 100 | – |
| CCC[C@@H]1NC(=O)[C@H](Cc2c[nH]c3ncccc23)NC(=O)[C@H]([C@@H](C)O)NC(=O)[C@H](Cc2c[nH]cn2)NC(=O)[C@H](Cc2ccc(O)cc2)NC(=O)[C@H](C(C)(C)C)NC(=O)CCSCc2cccc(c2)CSC[C@@H](C(N)=O)NC(=O)[C@H]([C@@H](C)O)NC(=O)[C@H](CCC)NC(=O)[C@H](Cc2ccccc2)NC(=O)[C@H](CCC(=O)O)NC1=O [Compound 256] ([Mpa][Tle]YHT[Trp(7-aza)][Nva]EF[Nva]TC-NH2; linker 1-12 via mXylylene) | 1 to 21 | – |
| CCC[C@H](NC(C)=O)C(=O)N[C@H]1CSCc2cccc(c2)CSC[C@@H](C(N)=O)NC(=O)[C@H]([C@@H](C)O)NC(=O)[C@H](CCC)NC(=O)[C@H](Cc2ccc(O)cc2)NC(=O)[C@H](CCC(=O)O)NC(=O)[C@H](CCC)NC(=O)[C@H](C)NC(=O)[C@H]([C@@H](C)O)NC(=O)[C@H](Cc2cnc[nH]2)NC(=O)[C@H](Cc2ccc(O)cc2)NC(=O)[C@H](C(C)(C)C)NC1=O [Compound 230] (Ac-[Nva]C[Tle]YHTA[Nva]EY[Nva]TC-NH2; linker 2-13 via mXylylene) | 50 to 100 | – |
